{"source": "patent US9618511B2", "about": "“Methods and compositions for treating alzheimer's disease” (Eleanore Bennett Charitable Trust #2, priority 2008, dated 2017)", "key": {"[1]": {"tested_on": "PDK-dependent activation of Akt1", "assay": "In vitro PDK-dependent Akt1 phosphorylation and activity assay (immunoprecipitated PDK1 and Akt1, GSK-3 fusion protein substrate)", "type": "biochemical, human (SH-SY5Y, HEK293), mouse (C2C12)", "details": "for effect on PDK-stimulated Akt activity / Akt phosphorylation: 10 μM; for relative effect of amyloid preparations (monomer, ADDL, fibril) on PDK-dependent Akt activation: comparison of preparations, SH-SY5Y-derived kinases", "method": "Akt1 was immunoprecipitated (IP) overnight from 100 μg of the human brain sample or from C2C12 myotubes infected with adenovirus encoding Aβ using a 1:100 dilution of goat anti-Akt1 antibody. The following morning, 40 μl of a 50% slurry of protein G-Agarose (PGA) (Roche Applied Science) was added for an additional 1.5 hours. The beads were washed twice with wash buffer [1× phosphate buffered saline (PBS), 0.5% NP-40, 0.1 mM Na3VO4] and twice with kinase buffer [25 mM Tris (pH 7.5), 2 mM DTT, 0.1 mM Na3VO4, 10 mM MgCl2]. ATP (200 μM) and GSK-3 fusion protein (1 μg/50 μl) were added in the presence of kinase buffer, and the final reaction (50 μl) was incubated 30 minutes at 30° C. The reaction was stopped by adding 40 μl of Laemmli buffer. 20 μl of sample was loaded onto a 10% polyacrylamide gel for fractionation and western detection development.\nImmunoprecipitates (IPs) of PDK1 and Akt were prepared from 100 μg of either SH-SY5Y, C2C12 myotubes or from insulin-treated cultures. ATP (200 μM), GSK-3 fusion protein (1 μg/50 μl) and kinase buffer were added to the reaction. Various Aβ peptides were finally added at 0.01, 0.1, 1, 5, 10, 20 μM. Akt activity level was otherwise determined as above."}, "[2]": {"molecular_target": "T1, SGK (serum/glucocorticoid regulated kinase) activated by PDK (Mus musculus, UniProt Q9Z2A0)", "T1 construct": "Stimulated PDK was IP from insulin-treated C2C12 myotubes; endogenous in cells; host or cells: PDK from insulin-treated C2C12 myotubes", "T1 sequence (Q9Z2A0 1-559)": "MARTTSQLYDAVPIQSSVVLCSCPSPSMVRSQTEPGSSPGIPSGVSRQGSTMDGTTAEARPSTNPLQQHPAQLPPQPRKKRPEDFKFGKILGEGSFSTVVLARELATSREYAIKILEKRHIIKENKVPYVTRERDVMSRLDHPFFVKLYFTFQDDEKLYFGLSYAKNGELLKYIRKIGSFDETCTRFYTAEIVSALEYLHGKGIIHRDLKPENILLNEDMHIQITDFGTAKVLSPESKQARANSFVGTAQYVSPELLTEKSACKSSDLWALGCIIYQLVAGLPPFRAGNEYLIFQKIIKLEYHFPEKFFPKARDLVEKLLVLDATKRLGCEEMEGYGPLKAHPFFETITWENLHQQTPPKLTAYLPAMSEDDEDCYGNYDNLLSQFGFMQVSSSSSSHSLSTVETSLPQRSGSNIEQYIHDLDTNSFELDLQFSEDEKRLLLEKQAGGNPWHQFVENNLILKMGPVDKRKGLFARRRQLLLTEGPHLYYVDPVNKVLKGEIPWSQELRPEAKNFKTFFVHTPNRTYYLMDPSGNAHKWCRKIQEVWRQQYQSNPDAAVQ", "assay": "PDK-stimulated SGK activity, in vitro kinase assay", "type": "biochemical", "details": "10 μM", "description": "Another kinase, termed SGK (serum/glucocorticoid regulated kinase), is also activated by PDK. Similar to Akt, SGK has a PH domain and phosphorylates GSK-3 α/β (Kobayashi, T., Deak, M., Morrice, N., and Cohen, P., 1999, Characterization of the structure and regulation of two novel isoforms of serum- and glucocorticoid-induced protein kinase, Biochem J 344 Pt 1:189-197, and Tessier, M., and Woodgett, J. R., 2006, Serum and glucocorticoid-regulated protein kinases: variations on a theme, J Cell Biochem 98:1391-1407). If Aβ inhibits PH-mediated activations of Akt independent of PIP3, it is predicted to affect this mechanism too. Indeed, in FIG. 7D, ADDL-containing Aβ preparations inhibited PDK-stimulated SGK activity (lane 7 vs. 6 and 5). […] This enhanced activity was not however, interrupted by Aβ (10 μM, lane 4 vs. 3). Lastly, another kinase that converges to phosphorylate GSK, PKA (Grimes, C. A., and Jope, R. S., 2001, The multifaceted roles of glycogen synthase kinase 3beta in cellular signaling, Prog Neurobiol 65:391-426; Li, M., Wang, X., Meintzer, M. K., Laessig, T., Birnbaum, M. J., and Heidenreich, K. A., 2000, Cyclic AMP promotes neuronal survival by phosphorylation of glycogen synthase kinase 3beta, Mol Cell Biol 20:9356-9363), was tested. […] Thus, the mechanism of Aβ inhibition of Akt activation is specific to PDK-like kinases. […]"}, "[3]": {"tested_on": "C2C12 myotubes", "assay": "Extracellular peptide or insulin treatment of C2C12 myotubes, western blot of Akt signaling", "type": "cell-based, mouse", "method": "The prior cell-based and in vitro experiments are relevant to […] Aβ effects. To determine the specificity of Akt inhibition by […] Aβ, C2C12 myotubes were cultured, and treated with extracellular Aβ25-35, Aβ35-25, Aβ1-42 and Aβ42-1 for 24 hours. In the last 30 minutes before harvest, insulin was added (0.1 μg/ml). While p-Akt (Ser473) and p-GSK-3 α/β levels were increased by insulin treatment (FIG. 9C, lane 2 vs. 1), they were not affected by any of the Aβ treatments. […] There were also no significant changes in p-Akt (Ser473) levels (data not shown). […] PDK itself is subject to phosphorylation (e.g., at Ser 241) and several authors feel that it is constitutively phosphorylated and thus ‘primed’ (Casamayor, A., Morrice, N. A., and Alessi, D. R., 1999, Phosphorylation of Ser-241 is essential for the activity of 3-phosphoinositide-dependent protein kinase-1: identification of five sites of phosphorylation in vivo, Biochem J 342 (Pt 2):287-292). The experiments described herein indicate that p-PDK levels are constitutively high in C2C12 cells and not boosted further by insulin action (FIG. 9E, top). p-PDK levels were not modulated by extracellular (FIG. 9E lower panel) or intracellular Aβ expression (not shown).\nIn FIG. 9C C2C12 myotubes were bath exposed to AP25-35, reverse AP35-25, AP1-42 and reverse Aβ42-1 peptides for 24 hours before treatment with insulin (0.1 μg/ml, 15 min) Whole cell extracts were subjected to Western analysis for p-Akt (Ser473) (Akt activation) and total Akt levels (top) as well as for endogenous levels of pGSK-3a/p, indicative of Akt activity, and total GSK-3β (lower two blots). […] The increase was not affected by pre-treatment with extracellular AR.\nIn FIG. 9D C2C12 myotube cultures were exposed to increasing doses of A[i1-42 (0, 10 and 25 μM) for 2 hours before treatment with insulin (0, 20, 100 and 500 ng/ml) for 15 min Harvested cell extracts were used for western blot for p-Akt (Thr308)."}}, "note": "Entries after “also recorded” stand apart in the source; their conditions may differ.", "data": [{"molecule": "CCCCCCCCCCCCCCCC(=O)OC[C@H](COP(=O)(O)OC1[C@H](O)[C@H](OP(=O)(O)O)C(OP(=O)(O)O)[C@H](OP(=O)(O)O)[C@H]1O)OC(=O)CCCCCCCCCCCCCCC", "note": "(stereo partly shown) [PIP3, phosphatidylinositol-tris-3,4,5-phosphate, dipalmitoyl]", "values": [{"measurement": "PDK-dependent Akt1 phosphorylation and activity", "setting": "[1]; 50 nM added, PP2A-treated Akt", "result": "extra increase"}]}, {"molecule": "ADDL: Aβ-derived diffusible ligands, oligomer-enriched Aβ42 preparation (24 to 48 hr at 4° C.)", "values": [{"measurement": "PDK-stimulated SGK activity", "setting": "[2]", "result": "inhibited SGK activation"}, {"measurement": "effect on PDK-stimulated Akt activity (GSK-3 substrate phosphorylation)", "setting": "[1]; 5 μM (or doses up to 5 μM)", "result": "greatest interference"}, {"measurement": "effect on PDK-stimulated Akt activity / Akt phosphorylation", "setting": "[1]", "result": "nearly eliminates"}, {"measurement": "effect on PDK-stimulated Akt activity / Akt phosphorylation", "setting": "[1]; listed as ADDL preparations", "result": "near total inhibition"}, {"measurement": "relative effect of amyloid preparations (monomer, ADDL, fibril) on PDK-dependent Akt activation", "setting": "[1]", "result": "more potent inhibitors"}, {"measurement": "relative effect of amyloid preparations (monomer, ADDL, fibril) on PDK-dependent Akt activation", "setting": "[1]; listed as ADDL-containing Aβ preparations", "result": "additively more injurious"}, {"measurement": "relative effect of amyloid preparations (monomer, ADDL, fibril) on PDK-dependent Akt activation", "setting": "[1]; listed as ADDLs", "result": "more toxic; also recorded: significantly prevented; also recorded: significantly greater inhibition"}]}, {"molecule": "Aβ25-35: fragment consisting of residues 25-35 of Aβ (GSNKGAIIGLM; Amyloid-beta protein 42; UniProt P05067 696-706, looked up, fragment)", "values": [{"measurement": "p-Akt (Ser473) and p-GSK-3 α/β levels after insulin", "setting": "[3]; extracellular peptide 24 hours, then insulin 0.1 μg/ml", "result": "not affected"}]}, {"molecule": "Fibrillar Aβ: fibrillar Aβ42 made in 10 mM HCl, 37° C., 24 hr", "values": [{"measurement": "relative effect of amyloid preparations (monomer, ADDL, fibril) on PDK-dependent Akt activation", "setting": "[1]; listed as fibril-containing preparations", "result": "little toxicity; also recorded: least active"}, {"measurement": "relative effect of amyloid preparations (monomer, ADDL, fibril) on PDK-dependent Akt activation", "setting": "[1]; listed as fibrillated preparations of Aβ", "result": "little effect"}]}, {"molecule": "Insulin: insulin used to stimulate the Akt pathway", "values": [{"measurement": "levels of p-Akt (Ser473) and Akt activity (p-GSK-3 α/β)", "setting": "[3]; 0.1 μg/ml, 15 min", "result": "significantly increased"}]}, {"molecule": "PTEN: Recombinant Phosphatase and Tensin Homolog, lipid phosphatase (R & D Systems)", "values": [{"measurement": "PDK stimulation of Akt activity after preincubation of the kinase beads", "setting": "[1]; preincubation 10.6 μg/ml, 15 min at 37° C., then washing", "result": "eliminated any stimulation of Akt activity"}]}]}
